Results taken from ChEMBL document CHEMBL1201862, “PubChem BioAssay data set” (2004).
Activity calls are given as the source filed them. How the calls were made is not given here.

How the values were obtained:
Format in all cases: functional
[1] = molecular target: MAP kinase-interacting serine/threonine-protein kinase 2 (Homo sapiens, UniProt Q9HBH9)
[2] = molecular target: T1, Mitogen-activated protein kinase kinase kinase kinase 2 (Homo sapiens, UniProt Q12851);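 further: measured as one member of a kinome-wide kinase panel, with MAP4K2 as the panel entry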
T1 sequence (Q12851 whole entry): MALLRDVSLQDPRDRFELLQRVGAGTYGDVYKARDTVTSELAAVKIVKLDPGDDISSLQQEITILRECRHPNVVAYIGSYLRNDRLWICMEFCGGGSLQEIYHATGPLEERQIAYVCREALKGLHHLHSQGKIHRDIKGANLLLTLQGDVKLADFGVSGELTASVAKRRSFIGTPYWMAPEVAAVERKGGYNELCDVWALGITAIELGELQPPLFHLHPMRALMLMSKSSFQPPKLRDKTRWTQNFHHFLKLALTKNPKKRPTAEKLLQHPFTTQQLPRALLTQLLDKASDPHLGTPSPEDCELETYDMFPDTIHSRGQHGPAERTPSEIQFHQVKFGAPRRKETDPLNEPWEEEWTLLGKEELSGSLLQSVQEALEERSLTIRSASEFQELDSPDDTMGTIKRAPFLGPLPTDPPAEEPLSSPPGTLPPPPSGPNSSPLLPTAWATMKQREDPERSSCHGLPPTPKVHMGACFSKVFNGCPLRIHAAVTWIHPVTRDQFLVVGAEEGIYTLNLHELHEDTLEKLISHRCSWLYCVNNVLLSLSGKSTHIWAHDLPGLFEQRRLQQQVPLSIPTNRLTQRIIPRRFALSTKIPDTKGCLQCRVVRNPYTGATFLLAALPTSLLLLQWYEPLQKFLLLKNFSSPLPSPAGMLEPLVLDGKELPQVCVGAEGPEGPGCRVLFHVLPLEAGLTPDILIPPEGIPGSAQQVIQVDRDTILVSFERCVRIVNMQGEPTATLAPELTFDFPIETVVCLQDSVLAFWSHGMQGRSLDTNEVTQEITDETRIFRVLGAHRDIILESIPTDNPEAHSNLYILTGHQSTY

[3] = molecular target: T2, Tyrosine-protein kinase ITK/TSK (Homo sapiens, UniProt Q08881);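 further: affinity for ITK measured as one member of a broad kinase panel profiling binding across the kinome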
T2 sequence (Q08881 whole entry): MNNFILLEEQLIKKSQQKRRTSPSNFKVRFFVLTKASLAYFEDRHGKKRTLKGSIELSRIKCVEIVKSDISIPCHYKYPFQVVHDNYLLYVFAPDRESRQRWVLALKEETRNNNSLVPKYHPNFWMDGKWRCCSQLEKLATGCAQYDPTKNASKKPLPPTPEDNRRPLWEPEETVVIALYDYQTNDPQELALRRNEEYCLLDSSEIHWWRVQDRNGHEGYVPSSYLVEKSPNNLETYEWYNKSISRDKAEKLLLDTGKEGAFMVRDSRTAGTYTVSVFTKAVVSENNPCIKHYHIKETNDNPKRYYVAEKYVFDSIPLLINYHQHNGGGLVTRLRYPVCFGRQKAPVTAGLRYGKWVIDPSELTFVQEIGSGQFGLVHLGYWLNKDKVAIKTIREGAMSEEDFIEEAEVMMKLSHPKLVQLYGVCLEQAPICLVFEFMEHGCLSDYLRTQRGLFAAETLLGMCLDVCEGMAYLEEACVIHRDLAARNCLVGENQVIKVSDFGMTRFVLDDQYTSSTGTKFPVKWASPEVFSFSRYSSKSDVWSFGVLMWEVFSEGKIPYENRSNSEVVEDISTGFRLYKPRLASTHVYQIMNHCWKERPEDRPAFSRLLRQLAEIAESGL

[4] = molecular target: T3, Receptor-type tyrosine-protein kinase FLT3 (Homo sapiens, UniProt P36888);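 further: FLT3 was tested as one member of a kinome-wide kinase panel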
T3 sequence (P36888 whole entry): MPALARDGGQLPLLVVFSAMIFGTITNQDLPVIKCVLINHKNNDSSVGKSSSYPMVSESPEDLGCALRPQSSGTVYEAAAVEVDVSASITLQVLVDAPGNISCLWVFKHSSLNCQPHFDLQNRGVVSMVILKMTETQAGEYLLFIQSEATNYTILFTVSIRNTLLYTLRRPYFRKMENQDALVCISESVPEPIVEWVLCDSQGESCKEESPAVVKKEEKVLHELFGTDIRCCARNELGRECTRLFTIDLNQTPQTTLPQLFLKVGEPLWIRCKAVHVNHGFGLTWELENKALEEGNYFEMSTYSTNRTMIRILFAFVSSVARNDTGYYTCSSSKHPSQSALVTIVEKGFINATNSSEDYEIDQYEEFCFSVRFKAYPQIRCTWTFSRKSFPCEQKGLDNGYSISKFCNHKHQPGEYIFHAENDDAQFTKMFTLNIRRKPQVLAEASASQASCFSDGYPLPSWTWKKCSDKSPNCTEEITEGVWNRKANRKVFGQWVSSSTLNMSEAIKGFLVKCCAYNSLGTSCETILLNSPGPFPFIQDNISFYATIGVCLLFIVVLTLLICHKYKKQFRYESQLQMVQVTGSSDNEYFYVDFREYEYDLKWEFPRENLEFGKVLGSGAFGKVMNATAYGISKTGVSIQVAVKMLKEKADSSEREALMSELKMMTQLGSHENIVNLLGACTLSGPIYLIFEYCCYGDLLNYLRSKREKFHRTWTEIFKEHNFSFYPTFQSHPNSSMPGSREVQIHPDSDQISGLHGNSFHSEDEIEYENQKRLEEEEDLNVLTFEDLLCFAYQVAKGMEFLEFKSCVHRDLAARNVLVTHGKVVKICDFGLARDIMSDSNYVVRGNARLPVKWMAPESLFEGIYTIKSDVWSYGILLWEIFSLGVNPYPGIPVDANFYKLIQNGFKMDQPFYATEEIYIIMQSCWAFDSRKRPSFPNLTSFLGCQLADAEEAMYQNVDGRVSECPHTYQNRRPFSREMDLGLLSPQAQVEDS

Sequence of MAP kinase-interacting serine/threonine-protein kinase 2 (Q9HBH9 whole entry): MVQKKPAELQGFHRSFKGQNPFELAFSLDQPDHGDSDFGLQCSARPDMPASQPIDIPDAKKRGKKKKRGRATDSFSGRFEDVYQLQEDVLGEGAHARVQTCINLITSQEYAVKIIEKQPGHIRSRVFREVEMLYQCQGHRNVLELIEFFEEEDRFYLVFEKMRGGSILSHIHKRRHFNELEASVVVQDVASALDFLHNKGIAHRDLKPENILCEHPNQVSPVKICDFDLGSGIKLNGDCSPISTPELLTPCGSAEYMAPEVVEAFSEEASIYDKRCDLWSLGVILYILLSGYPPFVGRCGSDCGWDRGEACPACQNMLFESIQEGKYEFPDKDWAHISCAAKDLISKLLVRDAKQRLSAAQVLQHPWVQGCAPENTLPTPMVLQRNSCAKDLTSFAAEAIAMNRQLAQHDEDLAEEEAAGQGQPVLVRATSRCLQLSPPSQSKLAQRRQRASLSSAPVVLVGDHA

SMILES | Ki [1] | pKi [1] | Ki [2] | pKi [2] | Ki [3] | Ki [4]
NC(=O)c1cc(-c2ccnc(N)n2)[nH]c1-c1ccc(Cl)cc1Cl | 79.4 nM (active) | 7.1 | 200 nM (active) | 6.7 | > 1580 nM (inactive) | > 1260 nM (inactive)
NC(COc1cncc(-c2ccc3c(c2)C(=Cc2ccco2)C(=O)N3)c1)Cc1c[nH]c2ccccc12 (configuration not stated) | 316 nM (active) |  | 39.8 nM (active) |  | 1260 nM (active) | 31.6 nM (active)
Cc1ccc(-n2nc(C(C)(C)C)cc2NC(=O)Nc2ccc(OCCN3CCOCC3)c3ccccc23)cc1 [DORAMAPIMOD] |  |  | > 2510 nM (inactive) |  | > 1580 nM (inactive) | 
